Here are results for twelve molecules from patent publication US20250163057A1, “DCN-1 MODULATING COMPOUNDS AND METHODS OF USE THEREOF” (Cellarity, Inc., priority 2023, published 2025).

Assay [1] concerns Cullin-3 (CUL3) neddylation. Kind of assay: AlphaLISA assay for Cullin-3 (CUL3) neddylation in TF 1 cells. The class given is cell-based. To be noted: Homo sapiens, TF-1, 3 h, 3 hours treatment. Summed up:
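Neddylated CUL3 was quantified by AlphaLISA in lysates of TF 1 cells exposed for 3 h to test compound in IMDM without supplements. Percent inhibition set between vehicle and 1 μM DI-1548 positive control; IC50 derived by Hill-equation fitting of dose-response curves.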
Background: In Alpha technology, singlet oxygen from a donor bead excites a nearby acceptor bead.

For assay [2], the target named is DCN1 (DCUND1) protein PONY domain (Homo sapiens (Human), UniProt Q96GG9). Description: TR-FRET assay, DCN1 binding with FAM-labeled probe. Summed up: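 Biotinylated DCN1 PONY domain, labeled with streptavidin-Tb, was competed against a FAM-labeled non-covalent DCN1 inhibitor probe in buffer with TritonX and 200 mM NaCl. Conditions were 5 nM DCN1 with 20 nM FAM-probe, or 0.31 nM DCN1 with 100 nM FAM-plus 800 nM unlabeled probe. The TR-FRET ratio was read at 1, 5 and 24 h (0.1% DMSO).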
DCN1 (DCUND1) protein PONY domain, sequence (Q96GG9 60-248): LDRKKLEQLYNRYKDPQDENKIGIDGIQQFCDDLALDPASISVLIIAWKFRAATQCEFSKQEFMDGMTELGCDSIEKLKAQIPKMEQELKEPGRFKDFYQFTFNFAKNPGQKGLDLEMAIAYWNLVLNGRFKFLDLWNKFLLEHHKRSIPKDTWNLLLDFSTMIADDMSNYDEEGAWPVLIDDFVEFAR

Where [3] appears, read: 24 hr after treatment with compound, read-out: TR FRET IC50 24 hr.
The mark [4] stands for this setting: TR FRET IC50 1 hr (nM), 1 hr after treatment with compound.
The mark [5] stands for this setting: read-out: TR FRET IC50 1 hr, 1 hr after treatment with compound.

Read-outs that look alike come from different tables or passages of the source.

As a reminder, the IC50 is the point on the concentration scale where inhibition reaches its midpoint.

With `CCN1C(=O)[C@H](NC(=O)c2cccc(C(F)(F)F)c2)[C@H](c2ccc(F)cc2)c2c([C@@H](C)NC#N)nn(C3CCOCC3)c21` [Compound I-597], the figures for the IC50 in assay [1], in assay [2] (setting [3]) and in assay [2] (setting [4]) were more than 1 µM, 1000 to 3000 nM and 1000 to 3000 nM, respectively.
With `CCN1C(=O)[C@@H](NC(=O)c2cccc(C(F)(F)F)c2)[C@@H](C2CC2)c2c(C(=O)N(C)[C@@H](C#N)CCN(C)C)nn(C3CCOCC3)c21` [Compound I-550], the figures for the IC50 in assay [1], in assay [2] (setting [3]) and in assay [2] (setting [5]) were not above 0.1 µM, not above 200 nM and not above 200 nM, respectively.
On to `CCN1C(=O)[C@@H](NC(=O)c2cccc(C(F)(F)F)c2)[C@@H](C2CC2)c2c(C(=O)N3CS(=O)(=O)C[C@H]3C#N)nn(-c3ccccc3)c21` [Compound I-519], for which the IC50 is not above 0.1 µM in assay [1], not above 200 nM in assay [2] (setting [3]) and not above 200 nM in assay [2] (setting [5]).
`CCN1C(=O)[C@@H](NC(=O)c2cccc(C(F)(F)F)c2)[C@@H](c2ccc(F)cc2)c2c(C(=O)N3CC[C@H](F)[C@H]3C#N)nn(C3CCOCC3)c21` [Compound I-694, N-((4S,5S)-3-((2R,3S)-2-cyano-3-fluoropyrrolidine-1-carbonyl)-7-ethyl-4-(4-fluorophenyl)-6-oxo-1-(tetrahydro-2H-pyran-4-yl)-4,5,6,7-tetrahydro-1H-pyrazolo[3,4-b]pyridin-5-yl)-3-(trifluoromethyl)benzamide]: the figures for the IC50 in assay [1], in assay [2] (setting [3]) and in assay [2] (setting [5]) were not above 0.1 µM, not above 200 nM and not above 200 nM, respectively.
Consider `CCN1C(=O)[C@@H](NC(=O)c2cccc(C(F)(F)F)c2)[C@@H](c2ccc(F)cc2)c2c(CN(C#N)CCCN3CC4(COC4)C3)nn(-c3ccccc3)c21` [Compound I-577], for which the figures for the IC50 in assay [1], in assay [2] (setting [3]) and in assay [2] (setting [4]) were more than 1 µM, 200 to 1000 nM and 200 to 1000 nM, respectively.
Regarding `CCN1C(=O)[C@H](NC(=O)c2cccc(C(F)(F)F)c2)[C@@H](c2ccc(F)cc2)c2c(COCC#N)nn(-c3ccccc3)c21` [Compound I-522], the values for the IC50 in assay [1], in assay [2] (setting [3]) and in assay [2] (setting [4]) were more than 1 µM, 1000 to 3000 nM and 1000 to 3000 nM, respectively.
As for `CCN1C(=O)[C@@H](NC(=O)c2cccc(C(F)(F)F)c2)[C@@H](c2ccc(F)cc2)c2c([C@@H](CO)NC#N)nn(-c3ccccc3)c21` [Compound I-487], the values for the IC50 in assay [1], in assay [2] (setting [3]) and in assay [2] (setting [4]) were 0.1 to 1 µM, not above 200 nM and 200 to 1000 nM, respectively.
In the same order, the values of `CCN1C(=O)[C@H](NC(=O)c2cccc(C(F)(F)F)c2)[C@H](C2CC2)c2c(C(=O)N(CC#N)C3CC3)nn(-c3ccccc3)c21` [Compound I-557] are more than 1 µM, 1000 to 3000 nM and 1000 to 3000 nM.
In the same order, the values of `CCN1C(=O)[C@H](NC(=O)c2cccc(C(F)(F)F)c2)[C@H](c2ccc(F)cc2)c2c(C(=O)N3CCNC[C@@H]3C#N)nn(-c3ccccc3)c21` [Compound I-534] are more than 1 µM, 1000 to 3000 nM and 1000 to 3000 nM.
In the same order, the values of `CCN1C(=O)[C@@H](NC(=O)c2ccc3cc[nH]c3c2)[C@@H](C2CC2)c2c(C(=O)N3[C@H](C#N)C[C@H]4C[C@H]43)nn(C3CCOCC3)c21` [Compound I-667] are not above 0.1 µM, not above 200 nM and 200 to 1000 nM.
`CCN1C(=O)[C@@H](NC(=O)c2cccc(C(F)(F)F)c2)[C@@H](c2ccc(F)cc2)c2c(C(=O)N(C)[C@H](C#N)CCN(C)C3COC3)nn(C3CCOCC3)c21` [Compound I-470]: the IC50 in assay [1] is not above 0.1 µM; in assay [2] (setting [3]), not above 200 nM; in assay [2] (setting [5]), not above 200 nM.
Consider `CCN1C(=O)[C@@H](NC(=O)c2cccc(C(F)(F)F)c2)[C@@H](c2ccc(F)cc2)c2c(C(=O)N3CCC=C3C#N)nn(C3CCOCC3)c21` [Compound I-631, N-((4S,5S)-3-(5-cyano-2,3-dihydro-1H-pyrrole-1-carbonyl)-7-ethyl-4-(4-fluorophenyl)-6-oxo-1-(tetrahydro-2H-pyran-4-yl)-4,5,6,7-tetrahydro-1H-pyrazolo[3,4-b]pyridin-5-yl)-3-(trifluoromethyl)benzamide], for which the IC50 in assay [1] was 0.1 to 1 µM; in assay [2] (setting [3]), not above 200 nM; in assay [2] (setting [4]) it was 200 to 1000 nM.
